Experimental data taken from US20250215030A1, “STAT MODULATORS AND USES THEREOF” (Recludix Pharma, Inc., priority 2022, published 2025).

Columns and labels:
[1] = target: T1, Recombinant STAT6 protein (STAT6(W123-T658)) (Homo sapiens, UniProt P42226); test: STAT6 Fluorescence Polarization (FP) Assay; assay type: binding; settings: STAT6(W123-T658) 250 nM, probe 5-FAM-ApYKPFQDLI-NH2 2 nM, 45-minute incubation
T1 construct: STAT6(W123-T658)
T1 sequence (P42226 123-658): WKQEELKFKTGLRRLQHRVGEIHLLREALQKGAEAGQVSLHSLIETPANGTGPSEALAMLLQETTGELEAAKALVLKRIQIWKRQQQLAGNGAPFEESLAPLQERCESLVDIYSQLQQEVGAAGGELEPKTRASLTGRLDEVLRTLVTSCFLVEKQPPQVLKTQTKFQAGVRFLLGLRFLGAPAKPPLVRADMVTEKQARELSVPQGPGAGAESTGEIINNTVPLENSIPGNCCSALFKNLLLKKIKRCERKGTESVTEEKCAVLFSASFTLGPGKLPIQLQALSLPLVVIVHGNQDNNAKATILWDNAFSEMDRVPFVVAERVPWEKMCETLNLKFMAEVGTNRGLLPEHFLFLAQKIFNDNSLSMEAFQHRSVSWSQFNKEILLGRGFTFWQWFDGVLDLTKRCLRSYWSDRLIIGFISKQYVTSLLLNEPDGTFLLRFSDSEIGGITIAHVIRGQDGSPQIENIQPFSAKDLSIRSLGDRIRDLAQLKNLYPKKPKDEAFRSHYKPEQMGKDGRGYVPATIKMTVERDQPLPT
In short: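 STAT6 (W123-T658) at 250 nM mixed with 2 nM 5-FAM-ApYKPFQDLI-NH2 probe in HEPES pH 7.4 buffer with DTT and Tween 20, 1% DMSO final. Polarization read after 45 min at room temperature; IC50 by nonlinear regression of mP versus log concentration, reported in bins A–D.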

[2] = target: T2, Recombinant STAT3 protein (STAT3(G127-I722)) (Homo sapiens, UniProt P40763); test: STAT3 Fluorescence Polarization (FP) Assay; assay type: binding; settings: STAT3(G127-I722) 25 nM, probe 5-FAM-GpYLPQTV-NH2 2 nM, 45-minute incubation
T2 construct: STAT3(G127-I722)
In short: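 STAT3(G127-I722) at 25 nM and 5-FAM-GpYLPQTV-NH2 probe at 2 nM in HEPES pH 7.4 buffer with NaCl, EDTA, Tween 20, DTT; 1% DMSO. FP read after 45 min at room temperature; IC50 by nonlinear regression of mP vs log concentration, binned A ≤100 nM to D >10 μM.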

T2 sequence (P40763 127-722, species assumed): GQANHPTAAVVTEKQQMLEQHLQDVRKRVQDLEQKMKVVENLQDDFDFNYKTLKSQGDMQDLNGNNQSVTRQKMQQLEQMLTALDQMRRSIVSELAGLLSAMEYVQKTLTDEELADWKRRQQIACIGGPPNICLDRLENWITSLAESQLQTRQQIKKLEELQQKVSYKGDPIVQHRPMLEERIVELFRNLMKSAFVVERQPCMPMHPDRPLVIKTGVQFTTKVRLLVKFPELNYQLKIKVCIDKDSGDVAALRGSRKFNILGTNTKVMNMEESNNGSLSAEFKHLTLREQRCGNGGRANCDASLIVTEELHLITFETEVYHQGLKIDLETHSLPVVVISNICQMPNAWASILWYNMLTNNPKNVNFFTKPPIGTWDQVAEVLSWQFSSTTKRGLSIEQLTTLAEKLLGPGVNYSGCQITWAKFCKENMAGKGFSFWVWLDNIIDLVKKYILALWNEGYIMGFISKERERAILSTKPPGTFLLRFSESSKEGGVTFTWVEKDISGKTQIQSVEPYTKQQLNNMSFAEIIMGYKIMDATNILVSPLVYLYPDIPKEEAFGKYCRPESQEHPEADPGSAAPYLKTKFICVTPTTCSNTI

| Compound | IC50 [1] [nM] | IC50 [2] [nM] |
| --- | --- | --- |
| O=C(N[C@H]1C[C@@H]2C[C@@H]2C[C@H]2CC[C@@H](C(=O)N3CC(c4nn[nH]n4)C3)N2C1=O)c1cc2cc(C(F)(F)P(=O)(O)O)ccc2s1 [Compound 103, ((2-(((3S,6S,7aS,8aR,9aR)-3-(3-(2H-tetrazol-5-yl)azetidine-1-carbonyl)-5-oxodecahydro-1H-cyclopropa[d]pyrrolo[1,2-a]azocin-6-yl)carbamoyl)benzo[b]thiophen-5-yl)difluoromethyl)phosphonic acid] | 300 to 3000 | 100 to 1000 |
| O=C(N[C@H]1C[C@@H]2C[C@@H]2C[C@H]2CC[C@@H](C(=O)N3CCN(C(=O)c4cn[nH]c4)CC3)N2C1=O)c1cc2cc(C(F)(F)P(=O)(O)O)ccc2s1 [Compound 104, ((2-(((3S,6S,7aS,8aR,9aR)-3-(4-(1H-pyrazole-4-carbonyl)piperazine-1-carbonyl)-5-oxodecahydro-1H-cyclopropa[d]pyrrolo[1,2-a]azocin-6-yl)carbamoyl)benzo[b]thiophen-5-yl)difluoromethyl)phosphonic acid] | 300 to 3000 | < 100 |
| O=C(N[C@H]1C[C@@H]2C[C@@H]2C[C@H]2CC[C@@H](C(=O)N3CCN(C(=O)c4cc[nH]n4)CC3)N2C1=O)c1cc2cc(C(F)(F)P(=O)(O)O)ccc2s1 [Compound 105, ((2-(((3S,6S,7aS,8aR,9aR)-3-(4-(1H-pyrazole-3-carbonyl)piperazine-1-carbonyl)-5-oxodecahydro-1H-cyclopropa[d]pyrrolo[1,2-a]azocin-6-yl)carbamoyl)benzo[b]thiophen-5-yl)difluoromethyl)phosphonic acid] | 300 to 3000 | 100 to 1000 |
| O=C(N[C@H]1C[C@H]2C[C@H]2C[C@H]2CC[C@@H](C(=O)N3CC(n4ccnc4)C3)N2C1=O)c1cc2cc(C(F)(F)P(=O)(O)O)ccc2s1 [Compound 107, ((2-(((3S,6S,7aR,8aS,9aR)-3-(3-(1H-imidazol-1-yl)azetidine-1-carbonyl)-5-oxodecahydro-1H-cyclopropa[d]pyrrolo[1,2-a]azocin-6-yl)carbamoyl)benzo[b]thiophen-5-yl)difluoromethyl)phosphonic acid] | 3000 to 30000 | < 100 |
| O=C(N[C@H]1C[C@@H]2C[C@@H]2C[C@H]2CC[C@@H](C(=O)N3CC(N4CCS(=O)(=O)CC4)C3)N2C1=O)c1cc2cc(C(F)(F)P(=O)(O)O)ccc2s1 [Compound 108, ((2-(((3S,6S,7aS,8aR,9aR)-3-(3-(1,1-dioxidothiomorpholino)azetidine-1-carbonyl)-5-oxodecahydro-1H-cyclopropa[d]pyrrolo[1,2-a]azocin-6-yl)carbamoyl)benzo[b]thiophen-5-yl)difluoromethyl)phosphonic acid] | 3000 to 30000 | < 100 |
| O=C(N[C@H]1C[C@@H]2C[C@@H]2C[C@H]2CC[C@@H](C(=O)N3CC(C(=O)N4CC[C@@H](O)C4)C3)N2C1=O)c1cc2cc(C(F)(F)P(=O)(O)O)ccc2s1 [Compound 109, (difluoro(2-(((3S,6S,7aS,8aR,9aR)-3-(3-((R)-3-hydroxypyrrolidine-1-carbonyl)azetidine-1-carbonyl)-5-oxodecahydro-1H-cyclopropa[d]pyrrolo[1,2-a]azocin-6-yl)carbamoyl)benzo[b]thiophen-5-yl)methyl)phosphonic acid] | 3000 to 30000 | < 100 |
| CC1(O)CCN(C2CN(C(=O)[C@@H]3CC[C@@H]4C[C@H]5C[C@H]5C[C@H](NC(=O)c5cc6cc(C(F)(F)P(=O)(O)O)ccc6s5)C(=O)N43)C2)CC1 [Compound 110, (difluoro(2-(((3S,6S,7aS,8aR,9aR)-3-(3-(4-hydroxy-4-methylpiperidin-1-yl)azetidine-1-carbonyl)-5-oxodecahydro-1H-cyclopropa[d]pyrrolo[1,2-a]azocin-6-yl)carbamoyl)benzo[b]thiophen-5-yl)methyl)phosphonic acid] | 3000 to 30000 | 100 to 1000 |
| O=C(N[C@H]1C[C@@H]2C[C@@H]2C[C@H]2CC[C@@H](C(=O)N3CC(c4cc[nH]n4)C3)N2C1=O)c1cc2cc(C(F)(F)P(=O)(O)O)ccc2s1 [Compound 111, ((2-(((3S,6S,7aS,8aR,9aR)-3-(3-(1H-pyrazol-3-yl)azetidine-1-carbonyl)-5-oxodecahydro-1H-cyclopropa[d]pyrrolo[1,2-a]azocin-6-yl)carbamoyl)benzo[b]thiophen-5-yl)difluoromethyl)phosphonic acid] | 300 to 3000 | < 100 |
| O=C(N[C@H]1C[C@@H]2C[C@@H]2C[C@H]2CC[C@@H](C(=O)N[C@@H]3CCN(c4cccnc4)C3)N2C1=O)c1cc2cc(C(F)(F)P(=O)(O)O)ccc2s1 [Compound 112, (difluoro(2-(((3S,6S,7aS,8aR,9aR)-5-oxo-3-(((R)-1-(pyridin-3-yl)pyrrolidin-3-yl)carbamoyl)decahydro-1H-cyclopropa[d]pyrrolo[1,2-a]azocin-6-yl)carbamoyl)benzo[b]thiophen-5-yl)methyl)phosphonic acid] | 300 to 3000 | < 100 |
| O=C(N[C@H]1C[C@@H]2C[C@@H]2C[C@H]2CC[C@@H](C(=O)N3CCN(c4ccccn4)CC3)N2C1=O)c1cc2cc(C(F)(F)P(=O)(O)O)ccc2s1 [Compound 113, (difluoro(2-(((3S,6S,7aS,8aR,9aR)-5-ox0-3-(4-(pyridin-2-yl)piperazine-1-carbonyl)decahydro-1H-cyclopropa[d]pyrrolo[1,2-a]azocin-6-yl)carbamoyl)benzo[b]thiophen-5-yl)methyl)phosphonic acid] | 3000 to 30000 | 100 to 1000 |
| CO[C@@H]1CCN(C(=O)C2CN(C(=O)[C@@H]3CC[C@@H]4C[C@H]5C[C@H]5C[C@H](NC(=O)c5cc6cc(C(F)(F)P(=O)(O)O)ccc6s5)C(=O)N43)C2)C1 [Compound 114, (difluoro(2-(((3S,6S,7aS,8aR,9aR)-3-(3-((R)-3-methoxypyrrolidine-1-carbonyl)azetidine-1-carbonyl)-5-oxodecahydro-1H-cyclopropa[d]pyrrolo[1,2-a]azocin-6-yl)carbamoyl)benzo[b]thiophen-5-yl)methyl)phosphonic acid] | 3000 to 30000 | < 100 |
| O=C(N[C@H]1C[C@@H]2C[C@@H]2C[C@H]2CC[C@@H](C(=O)N3CCN(C4CCOCC4)CC3)N2C1=O)c1cc2cc(C(F)(F)P(=O)(O)O)ccc2s1 [Compound 115, (difluoro(2-(((3S,6S,7aS,8aR,9aR)-5-ox0-3-(4-(tetrahydro-2H-pyran-4-yl)piperazine-1-carbonyl)decahydro-1H-cyclopropa[d]pyrrolo[1,2-a]azocin-6-yl)carbamoyl)benzo[b]thiophen-5-yl)methyl)phosphonic acid] | 300 to 3000 | 100 to 1000 |
| CC(=O)N1CC[C@@H](NC(=O)[C@@H]2CC[C@@H]3C[C@H]4C[C@H]4C[C@H](NC(=O)c4cc5cc(C(F)(F)P(=O)(O)O)ccc5s4)C(=O)N32)C1 [Compound 116, ((2-(((3S,6S,7aS,9aR)-3-(((R)-1-acetylpyrrolidin-3-yl)carbamoyl)-5-oxodecahydro-1H-cyclopropa[d]pyrrolo[1,2-a]azocin-6-yl)carbamoyl)benzo[b]thiophen-5-yl)difluoromethyl)phosphonic acid] | 300 to 3000 | < 100 |
| CC(=O)N1CC[C@H](NC(=O)[C@@H]2CC[C@@H]3C[C@H]4C[C@H]4C[C@H](NC(=O)c4cc5cc(C(F)(F)P(=O)(O)O)ccc5s4)C(=O)N32)C1 [Compound 117, ((2-(((3S,6S,7aS,8aR,9aR)-3-(((S)-1-acetylpyrrolidin-3-yl)carbamoyl)-5-oxodecahydro-1H-cyclopropa[d]pyrrolo[1,2-a]azocin-6-yl)carbamoyl)benzo[b]thiophen-5-yl)difluoromethyl)phosphonic acid] | 300 to 3000 | < 100 |
| NC(=O)N1CC[C@@H](NC(=O)[C@@H]2CC[C@@H]3C[C@H]4C[C@H]4C[C@H](NC(=O)c4cc5cc(C(F)(F)P(=O)(O)O)ccc5s4)C(=O)N32)C1 [Compound 118, ((2-(((3S,6S,7aS,8aR,9aR)-3-(((R)-1-carbamoylpyrrolidin-3-yl)carbamoyl)-5-oxodecahydro-1H-cyclopropa[d]pyrrolo[1,2-a]azocin-6-yl)carbamoyl)benzo[b]thiophen-5-yl)difluoromethyl)phosphonic acid] | 300 to 3000 | < 100 |
| O=C(N[C@H]1C[C@@H]2C[C@@H]2C[C@H]2CC[C@@H](C(=O)N[C@@H]3CCN(C4CCOCC4)C3)N2C1=O)c1cc2cc(C(F)(F)P(=O)(O)O)ccc2s1 [Compound 119, (difluoro(2-(((3S,6S,7aS,8aR,9aR)-5-oxo-3-(((R)-1-(tetrahydro-2H-pyran-4-yl)pyrrolidin-3-yl)carbamoyl)decahydro-1H-cyclopropa[d]pyrrolo[1,2-a]azocin-6-yl)carbamoyl)benzo[b]thiophen-5-yl)methyl)phosphonic acid] | 3000 to 30000 | 100 to 1000 |
